Drawing on PMC9227536, “Prediction of Pharmacokinetics of IDP-73152 in Humans Using Physiologically-Based Pharmacokinetics” (Pharmaceutics, 2022), this text covers AUC ratio and Cmax ratio for one compound.

A short description of the data set: PBPK model prediction, humans. The source says: In this study, the PBPK model involving ten tissues (i.e., adipose tissue, brain, heart, kidney, liver, lung, muscle, skin, spleen, and testis (Figure 2; see Appendix A for detailed mathematical descriptions)) was considered to be applicable for the description of IDP-73152 PK in rats, mice, dogs, and humans. Physiological variables were obtained from the literature; they are summarized in Supplementary Table S1.
For the estimation of the volume of the distribution of IDP-73512 in rats, the steady-state volume of distribution (Vss) was calculated using the following equation [30]:(10) Vss=VP+Vrbc×EP+∑VT,i×KP,ss,i, where Vp, Vrbc, and VT,i are the volumes of plasma, red blood cells, and tissues, respectively. The erythrocyte-to-plasma partition coefficient (EP), is calculated by EP=1+(BP−1)/Hematocrit . The KP,ss for each tissue obtained from Equation (8) was applied for Equation (10). For the case of non-eliminating organs, the KP,ss was regarded as the tissue-to-plasma partition coefficient (KP) in PBPK equations (Appendix A). For the case of the liver—i.e., the eliminating organ—the KP,ss (KP,ss,LI) had to be corrected to account for the equilibrium being altered by the elimination. Thus, a PBPK-operative KP for liver (KP,LI) was calculated using the following equation [31]:(11) KP,LI=KP,ss,LI/(1−ER), where ER is the hepatic extraction ratio of the compound (i.e., CLh/(QLI·BP)). In this study, a compartmental absorption and transit (CAT) model consisting of stomach and five intestinal segments was considered for the description of the intestinal absorption kinetics of IDP-73152 in animals and humans. We assumed that the initial compartment denoted the stomach (Equation (12)), and the subsequent three compartments represented the small intestine and two additional compartments for the large intestine (i.e., a total of six compartments, with absorption occurring in the five intestinal compartments) (Equation (13)). The differential equations describing the rate of drug absorption and transit in the gastrointestinal tract can be written as:
For the intestine, viz. i = 1~5:(13) dMi/dt=Kt,i−1×Mi−1−(Kt,i+ka,i)×Mi, where Ms is the amount of drug in the stomach; Mi is the amount of drug in the i-th intestinal segment; Ks, Kt,i, and ka,i are the rate constants of gastric emptying, intestinal transit, and the segmental absorption rate, respectively. […] The absorption rate constant in the intestinal segments in humans, ka,i,human, was assumed to be identical along the segments and calculated as follows: first, Peff was empirically estimated from the Caco-2 cell permeability (Papp):(14) LogPeff=0.4926×LogPapp−0.1454
Then, ka,i,human for the intestinal segments i = 1~5 was calculated by (15) ka,1~5,human=2×Peff/R […]

For the compound `CC(C)(C)[C@H](NC(=O)[C@H](CC1CCCC1)CN(O)C=O)C(=O)N1CCC(NCc2cc(F)c(F)cc2F)CC1` [IDP-73152], the AUC ratio runs as follows: (oral 640 mg) 1.00; (oral 1280 mg) 1.12. Further, the Cmax ratio is, setting by setting: (oral 640 mg) 0.498; (oral 1280 mg) 0.671.
